We go through 22 compounds from patent US8017612B2, “Piperazine compound and use thereof as a HCV polymerase inhibitor” (priority 2006, dated 2011).

A value given as a limit tells only on which side of the number the result lay.

Test [1] addresses T1, HCV polymerase (NS5B) type 1a (Hepatitis C virus genotype 1a, UniProt P26664).
T1 construct: made in house; host or cells: Escherichia coli (by the 'similar method' of the 1b enzyme)
The test is described as follows: Assay of enzyme (HCV polymerase) inhibitory activity, type 1a enzyme. It is filed as biochemical, HCV type 1a (cloned from the blood of patients). The conditions noted are these: HCV polymerase inhibitory activity (IC50), 1a, type 1a enzyme 1.5 μg/ml, 25° C., 60 min. The method, boiled down:
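IC50 values derive from radioactivity of newly synthesized RNA with versus without test compound. The enzyme was C-terminally truncated type 1a NS5B, 1.5 μg/ml, run 60 min at 25° C with 3H-UTP-labelled nucleotides.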

For test [2], the target named is T2, HCV polymerase (NS5B) type 1b (Hepatitis C virus genotype 1b, UniProt P26663).
T2 construct: a region encoding NS5B (J Virol 1991 March, 65(3), 1105-13, 544 amino acids after deletion of 47 amino acids on the C-terminal); 6xHis (C); made in house; host or cells: Escherichia coli
The test is described as follows: Assay of enzyme (HCV polymerase) inhibitory activity, type 1b enzyme. It is filed as biochemical, HCV BK strain (type 1b). To be noted: HCV polymerase inhibitory activity (IC50), 1b, type 1b enzyme 0.5 μg/ml, 25° C., 60 min. An outline of the steps: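 Polymerase activity was followed as radiolabelled UTP incorporation by E. coli-expressed, His-tagged NS5B of HCV type 1b lacking its last 47 residues. Conditions: 2 μM UTP, 50 μM other NTPs, Mg2+ buffer at pH 7.5, 25 °C for 60 min. Inhibition relative to compound-free reactions gave IC50.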

A word on the IC50: it is the concentration at which inhibition is half-maximal. `CCCc1ccc(CNC(=O)[C@H]2CN(c3cnc(C(=O)O)c(C)n3)CCN2S(=O)(=O)c2ccc(OC(F)(F)F)cc2)cc1` [Example 449, (R)-6′-methyl-3-(4-propyl-benzylcarbamoyl)-4-(4-trifluoromethoxy-benzenesulfonyl)-3,4,5,6-tetrahydro-2H-[1,2′]bipyrazinyl-5′-carboxylic acid]: the IC50 in test [1] and in test [2] was under 0.1 µM throughout.

On to `CCCc1ccc(CNC(=O)[C@H]2CN(C(C)=O)CCN2S(=O)(=O)c2ccc(OC(F)(F)F)cc2)cc1` [Example 450, (R)-4-acetyl-1-(4-trifluoromethoxy-benzenesulfonyl)-piperazine-2-carboxylic acid 4-propyl-benzylamide], for which the half-inhibitory concentration (IC50) in test [1] and in test [2] was under 0.1 µM each time.

`COCc1ccc(CNC(=O)[C@H]2CN(c3nc(C)c(C(=O)O)s3)CCN2S(=O)(=O)c2ccc(OC(F)(F)F)cc2)cc1` [Example 451, 2-[(R)-3-(4-methoxymethyl-benzylcarbamoyl)-4-(4-trifluoromethoxy-benzenesulfonyl)-piperazin-1-yl]-4-methyl-thiazole-5-carboxylic acid]: the IC50 in test [1] and in test [2] was under 0.1 µM each time.

Take `CCCc1ccc(CNC(=O)[C@H]2CN(c3nc(C)c(CO)s3)CCN2S(=O)(=O)c2ccc(OC(F)(F)F)cc2)cc1` [Example 452, (R)-4-(5-hydroxymethyl-4-methyl-thiazol-2-yl)-1-(4-trifluoromethoxy-benzenesulfonyl)-piperazine-2-carboxylic acid 4-propyl-benzylamide]: the IC50 in test [1] and in test [2] was under 0.1 µM throughout.

For `CCCc1ccc(CNC(=O)[C@H]2CN(c3nc(C(F)(F)F)c(C(=O)O)s3)CCN2S(=O)(=O)c2ccc(OC(F)(F)F)cc2)cc1` [Example 453, 2-[(R)-3-(4-propyl-benzylcarbamoyl)-4-(4-trifluoromethoxy-benzenesulfonyl)-piperazin-1-yl]-4-trifluoromethyl-thiazole-5-carboxylic acid], the IC50 in test [1] and in test [2] was under 0.1 µM in each case.

With `CCCc1ccc(CNC(=O)[C@H]2CN(c3cc(C)c(O)nn3)CCN2S(=O)(=O)c2ccc(OC(F)(F)F)cc2)cc1` [Example 454, (R)-4-(6-hydroxy-5-methyl-pyridazin-3-yl)-1-(4-trifluoromethoxy-benzenesulfonyl)-piperazine-2-carboxylic acid 4-propyl-benzylamide], the IC50 in test [1] and in test [2] was under 0.1 µM throughout.

For the compound `CCCc1ccc(CNC(=O)[C@H]2CN(C(=O)Cn3nnc(CC(=O)OCC)n3)CCN2S(=O)(=O)c2ccc(OC(F)(F)F)cc2)cc1` [Example 455, (2-{2-oxo-2-[(R)-3-(4-propyl-benzylcarbamoyl)-4-(4-trifluoromethoxy-benzenesulfonyl)-piperazin-1-yl]-ethyl}-2H-tetrazol-5-yl)-acetic acid ethyl ester], the IC50 in test [1] and in test [2] was under 0.1 µM throughout.

Regarding `CCCc1ccc(CNC(=O)[C@H]2CN(C(=O)Cn3nnnc3C)CCN2S(=O)(=O)c2ccc(OC(F)(F)F)cc2)cc1` [Example 456, (R)-4-[2-(5-methyl-tetrazol-1-yl)-acetyl]-1-(4-trifluoromethoxy-benzenesulfonyl)-piperazine-2-carboxylic acid 4-propyl-benzylamide], the IC50 in test [1] and in test [2] was under 0.1 µM throughout.

Consider `CCCc1ccc(CNC(=O)[C@H]2CN(C(=O)Cn3nnc(C)n3)CCN2S(=O)(=O)c2ccc(OC(F)(F)F)cc2)cc1` [Example 457, (R)-4-[2-(5-methyl-tetrazol-2-yl)-acetyl]-1-(4-trifluoromethoxy-benzenesulfonyl)-piperazine-2-carboxylic acid 4-propyl-benzylamide], for which the concentration for half-maximal inhibition (IC50) in test [1] and in test [2] was under 0.1 µM in each case.

For `CCCc1ccc(CNC(=O)[C@H]2CN(c3ccc(N)cn3)CCN2S(=O)(=O)c2ccc(OC(F)(F)F)cc2)cc1` [Example 458, (R)-4-(5-amino-pyridin-2-yl)-1-(4-trifluoromethoxy-benzenesulfonyl)-piperazine-2-carboxylic acid 4-propyl-benzylamide], the IC50 in test [1] and in test [2] was under 0.1 µM in each case.

On to `CCC(F)(F)c1ccc(CNC(=O)[C@H]2CN(C(C)=O)CCN2S(=O)(=O)c2ccc(OC(F)(F)F)cc2)cc1` [Example 459, (R)-4-acetyl-1-(4-trifluoromethoxy-benzenesulfonyl)-piperazine-2-carboxylic acid 4-(1,1-difluoro-propyl)-benzylamide], for which the IC50 in test [1] and in test [2] was under 0.1 µM in each case.

On to `CCCc1ccc(CNC(=O)[C@H]2CN(C(=O)Cn3ncnn3)CCN2S(=O)(=O)c2ccc(OC(F)(F)F)cc2)cc1` [Example 460, (R)-4-(2-tetrazol-2-yl-acetyl)-1-(4-trifluoromethoxy-benzenesulfonyl)-piperazine-2-carboxylic acid 4-propyl-benzylamide], for which the IC50 in test [1] and in test [2] was under 0.1 µM throughout.

Take `CCCc1ccc(CNC(=O)[C@H]2CN(C(=O)Cn3cnnn3)CCN2S(=O)(=O)c2ccc(OC(F)(F)F)cc2)cc1` [Example 461, (R)-4-(2-tetrazol-1-yl-acetyl)-1-(4-trifluoromethoxy-benzenesulfonyl)-piperazine-2-carboxylic acid 4-propyl-benzylamide]: the IC50 in test [1] and in test [2] was under 0.1 µM throughout.

For `CCCc1ccc(CNC(=O)[C@H]2CN(C(=O)Cn3ccnc3)CCN2S(=O)(=O)c2ccc(OC(F)(F)F)cc2)cc1` [Example 462, (R)-4-(2-imidazol-1-yl-acetyl)-1-(4-trifluoromethoxy-benzenesulfonyl)-piperazine-2-carboxylic acid 4-propyl-benzylamide], the half-maximal inhibitory concentration (IC50) in test [1] and in test [2] was under 0.1 µM throughout.

Turning to `CCCc1ccc(CNC(=O)[C@H]2CN(C(=O)N(C)c3ccncc3)CCN2S(=O)(=O)c2ccc(OC(F)(F)F)cc2)cc1` [Example 463, (R)-4-(4-trifluoromethoxy-benzenesulfonyl)-piperazine-1,3-dicarboxylic acid 1-(methyl-pyridin-4-yl-amide) 3-(4-propyl-benzylamide)], the concentration for half-maximal inhibition (IC50) in test [1] and in test [2] was over 1 µM each time.

In the case of `CCC(F)(F)c1ccc(CNC(=O)[C@H]2CN(C(=O)Cn3cnnn3)CCN2S(=O)(=O)c2ccc(OC(F)(F)F)cc2)cc1` [Example 464, (R)-4-(2-tetrazol-1-yl-acetyl)-1-(4-trifluoromethoxy-benzenesulfonyl)-piperazine-2-carboxylic acid 4-(1,1-difluoro-propyl)-benzylamide], the IC50 in test [1] and in test [2] was under 0.1 µM each time.

Turning to `CCCc1ccc(CNC(=O)[C@H]2CN(C(=O)Cn3nnc(CC(=O)O)n3)CCN2S(=O)(=O)c2ccc(OC(F)(F)F)cc2)cc1` [Example 465, (2-{2-oxo-2-[(R)-3-(4-propyl-benzylcarbamoyl)-4-(4-trifluoromethoxy-benzenesulfonyl)-piperazin-1-yl]-ethyl}-2H-tetrazol-5-yl)-acetic acid], the IC50 in test [1] and in test [2] was under 0.1 µM each time.

Consider `CCOC(=O)Cc1nnn(CC(=O)N2CCN(S(=O)(=O)c3ccc(OC(F)(F)F)cc3)[C@@H](C(=O)NCc3ccc(C(F)(F)CC)cc3)C2)n1` [Example 466, (2-{2-[(R)-3-[4-(1,1-difluoro-propyl)-benzylcarbamoyl]-4-(4-trifluoromethoxy-benzenesulfonyl)-piperazin-1-yl]-2-oxo-ethyl}-2H-tetrazol-5-yl)-acetic acid ethyl ester], for which the IC50 in test [1] and in test [2] was under 0.1 µM each time.

In the case of `CCC(F)(F)c1ccc(CNC(=O)[C@H]2CN(C(=O)Cn3nnnc3C)CCN2S(=O)(=O)c2ccc(OC(F)(F)F)cc2)cc1` [Example 467, (R)-4-[2-(5-methyl-tetrazol-1-yl)-acetyl]-1-(4-trifluoromethoxy-benzenesulfonyl)-piperazine-2-carboxylic acid 4-(1,1-difluoro-propyl)-benzylamide], the IC50 in test [1] was under 0.1 µM; in test [2], 0.1 to 1 µM.

As to `CCC(F)(F)c1ccc(CNC(=O)[C@H]2CN(C(=O)Cn3nnc(C)n3)CCN2S(=O)(=O)c2ccc(OC(F)(F)F)cc2)cc1` [Example 468, (R)-4-[2-(5-methyl-tetrazol-2-yl)-acetyl]-1-(4-trifluoromethoxy-benzenesulfonyl)-piperazine-2-carboxylic acid 4-(1,1-difluoro-propyl)-benzylamide], the IC50 in test [1] and in test [2] was under 0.1 µM each time.

Regarding `CC(=O)N1CCN(S(=O)(=O)c2ccc(Br)c(F)c2)[C@@H](C(=O)NCc2ccc(C(C)C)cc2)C1` [Example 469, (R)-4-acetyl-1-(4-bromo-3-fluoro-benzenesulfonyl)-piperazine-2-carboxylic acid 4-isopropyl-benzylamide], the IC50 in test [1] and in test [2] was 0.1 to 1 µM each time.

Take `CCCc1ccc(CNC(=O)[C@H]2CN(C(=O)Nc3nc(CC(=O)OCC)cs3)CCN2S(=O)(=O)c2ccc(OC(F)(F)F)cc2)cc1` [Example 470, (2-{[(R)-3-(4-propyl-benzylcarbamoyl)-4-(4-trifluoromethoxy-benzenesulfonyl)-piperazine-1-carbonyl]-amino}-thiazol-4-yl)-acetic acid ethyl ester]: the IC50 in test [1] and in test [2] was 0.1 to 1 µM each time.
